Test system: 885724-159-R-J1-PDC complex spheroid viability
Test: Anticancer human tumor 885724-159-R-J1-PDC patient-derived pancreatic adenocarcinoma cell line growth inhibition [POLQ]
Conditions: for IC50: curve of first compound; for viability, T/C: stronger effect = lower value
Method in brief: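 PDC + HUVEC + MSC complex spheroids; POLQ inhibitors ± partner drugs; top conc. at/near clinical Cmax, else 10 microM (SN-38 1 microM), half-log dilutions; 37 degrees C, 5% CO2.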

[1] = second compound 0.0316 µM, first compound 0.0316 µM
[2] = second compound 0.0316 µM, first compound 0.1 µM
[3] = second compound 0.0316 µM, first compound 0.316 µM
[4] = second compound 0.0316 µM, first compound 1 µM
[5] = second compound 0.1 µM, first compound 0.0316 µM
[6] = second compound 0.1 µM, first compound 0.1 µM
[7] = second compound 0.1 µM, first compound 0.316 µM
[8] = second compound 0.1 µM, first compound 1 µM
[9] = second compound 0.316 µM, first compound 0.0316 µM
[10] = second compound 0.316 µM, first compound 0.1 µM
[11] = second compound 0.316 µM, first compound 0.316 µM
[12] = second compound 0.316 µM, first compound 1 µM
[13] = second compound 1 µM, first compound 0.0316 µM
[14] = second compound 1 µM, first compound 0.1 µM
[15] = second compound 1 µM, first compound 0.316 µM
[16] = second compound 1 µM, first compound 1 µM
[17] = second compound 3.16 µM, first compound 0.0316 µM
[18] = second compound 3.16 µM, first compound 0.1 µM
[19] = second compound 3.16 µM, first compound 0.316 µM
[20] = second compound 3.16 µM, first compound 1 µM
[21] = second compound 10 µM, first compound 0.0316 µM
[22] = second compound 10 µM, first compound 0.1 µM
[23] = second compound 10 µM, first compound 0.316 µM
[24] = second compound 10 µM, first compound 1 µM
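Also: spheroids exposed to compounds for 7 days.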

CCc1c2c(nc3ccc(O)cc13)-c1cc3c(c(=O)n1C2)COC(=O)[C@]3(O)CC + COC1C(OC(N)=O)C(O)C(Oc2ccc3c(O)c(NC(=O)c4ccc(O)c(CC=C(C)C)c4)c(=O)oc3c2C)OC1(C)C
IC50 (second compound 0.0316 µM): 42.2 nM | IC50 (second compound 0.1 µM): 48.9 nM | IC50 (second compound 0.316 µM): 38.3 nM | IC50 (second compound 1 µM): 41.1 nM | IC50 (second compound 3.16 µM): 35.3 nM | IC50 (second compound 10 µM): 35.8 nM | viability, T/C (second compound 0.0316 µM, first compound 0.00316 µM): 66.3% | viability, T/C (second compound 0.0316 µM, first compound 0.01 µM): 58.3% | viability, T/C [1]: 44.8% | viability, T/C [2]: 47.9% | viability, T/C [3]: 29% | viability, T/C [4]: 5.01% | viability, T/C (second compound 0.1 µM, first compound 0.00316 µM): 73.1% | viability, T/C (second compound 0.1 µM, first compound 0.01 µM): 58.2% | viability, T/C [5]: 47.3% | viability, T/C [6]: 49.9% | viability, T/C [7]: 28.7% | viability, T/C [8]: 4.25% | viability, T/C (second compound 0.316 µM, first compound 0.00316 µM): 80.1% | viability, T/C (second compound 0.316 µM, first compound 0.01 µM): 54.3% | viability, T/C [9]: 48.6% | viability, T/C [10]: 45.7% | viability, T/C [11]: 30.9% | viability, T/C [12]: 5% | viability, T/C (second compound 1 µM, first compound 0.00316 µM): 75.9% | viability, T/C (second compound 1 µM, first compound 0.01 µM): 60.4% | viability, T/C [13]: 44.1% | viability, T/C [14]: 49.9% | viability, T/C [15]: 27.6% | viability, T/C [16]: 4.79% | viability, T/C (second compound 3.16 µM, first compound 0.00316 µM): 76.4% | viability, T/C (second compound 3.16 µM, first compound 0.01 µM): 59% | viability, T/C [17]: 45.1% | viability, T/C [18]: 44.3% | viability, T/C [19]: 30% | viability, T/C [20]: 4.76% | viability, T/C (second compound 10 µM, first compound 0.00316 µM): 68.7% | viability, T/C (second compound 10 µM, first compound 0.01 µM): 52.3% | viability, T/C [21]: 48.9% | viability, T/C [22]: 43.5% | viability, T/C [23]: 27.5% | viability, T/C [24]: 4.27%

CC(=O)O[C@H]1C(=O)[C@@]2(C)[C@H]([C@H](OC(=O)c3ccccc3)[C@]3(O)C[C@H](OC(=O)[C@H](O)[C@@H](NC(=O)c4ccccc4)c4ccccc4)C(C)=C1C3(C)C)[C@]1(OC(C)=O)CO[C@@H]1C[C@@H]2O + Nc1ccc(C#CCN(C(=O)Cc2ncc(C(F)(F)F)cc2C(F)(F)F)c2ccc(F)cc2)nn1
IC50 (second compound 0.0316 µM): > 3000 nM | IC50 (second compound 0.1 µM): > 3000 nM | IC50 (second compound 0.316 µM): > 3000 nM | IC50 (second compound 1 µM): > 3000 nM | IC50 (second compound 3.16 µM): > 3000 nM | IC50 (second compound 10 µM): > 3000 nM | viability, T/C (second compound 0.0316 µM, first compound 0.00949 µM): 65.9% | viability, T/C (second compound 0.0316 µM, first compound 0.03 µM): 59.9% | viability, T/C (second compound 0.0316 µM, first compound 0.0949 µM): 56.6% | viability, T/C (second compound 0.0316 µM, first compound 0.3 µM): 64.7% | viability, T/C (second compound 0.0316 µM, first compound 0.949 µM): 62.5% | viability, T/C (second compound 0.0316 µM, first compound 3 µM): 70.3% | viability, T/C (second compound 0.1 µM, first compound 0.00949 µM): 69.9% | viability, T/C (second compound 0.1 µM, first compound 0.03 µM): 61.7% | viability, T/C (second compound 0.1 µM, first compound 0.0949 µM): 62.5% | viability, T/C (second compound 0.1 µM, first compound 0.3 µM): 69.1% | viability, T/C (second compound 0.1 µM, first compound 0.949 µM): 70% | viability, T/C (second compound 0.1 µM, first compound 3 µM): 68.9% | viability, T/C (second compound 0.316 µM, first compound 0.00949 µM): 71.8% | viability, T/C (second compound 0.316 µM, first compound 0.03 µM): 60.4% | viability, T/C (second compound 0.316 µM, first compound 0.0949 µM): 68% | viability, T/C (second compound 0.316 µM, first compound 0.3 µM): 58.1% | viability, T/C (second compound 0.316 µM, first compound 0.949 µM): 71.2% | viability, T/C (second compound 0.316 µM, first compound 3 µM): 74% | viability, T/C (second compound 1 µM, first compound 0.00949 µM): 63.4% | viability, T/C (second compound 1 µM, first compound 0.03 µM): 61.5% | viability, T/C (second compound 1 µM, first compound 0.0949 µM): 58.6% | viability, T/C (second compound 1 µM, first compound 0.3 µM): 63% | viability, T/C (second compound 1 µM, first compound 0.949 µM): 70.2% | viability, T/C (second compound 1 µM, first compound 3 µM): 69.5% | viability, T/C (second compound 3.16 µM, first compound 0.00949 µM): 64.8% | viability, T/C (second compound 3.16 µM, first compound 0.03 µM): 66.5% | viability, T/C (second compound 3.16 µM, first compound 0.0949 µM): 61.9% | viability, T/C (second compound 3.16 µM, first compound 0.3 µM): 60% | viability, T/C (second compound 3.16 µM, first compound 0.949 µM): 68.3% | viability, T/C (second compound 3.16 µM, first compound 3 µM): 75% | viability, T/C (second compound 10 µM, first compound 0.00949 µM): 67.4% | viability, T/C (second compound 10 µM, first compound 0.03 µM): 59.2% | viability, T/C (second compound 10 µM, first compound 0.0949 µM): 66.2% | viability, T/C (second compound 10 µM, first compound 0.3 µM): 70% | viability, T/C (second compound 10 µM, first compound 0.949 µM): 75.3% | viability, T/C (second compound 10 µM, first compound 3 µM): 71.8%

CCCS(=O)(=O)Nc1ccc(F)c(C(=O)c2c[nH]c3ncc(-c4ccc(Cl)cc4)cc23)c1F + COC1C(OC(N)=O)C(O)C(Oc2ccc3c(O)c(NC(=O)c4ccc(O)c(CC=C(C)C)c4)c(=O)oc3c2C)OC1(C)C
IC50 (second compound 0.0316 µM): > 10000 nM | IC50 (second compound 0.1 µM): > 10000 nM | IC50 (second compound 0.316 µM): > 10000 nM | IC50 (second compound 1 µM): > 10000 nM | IC50 (second compound 3.16 µM): > 10000 nM | IC50 (second compound 10 µM): > 10000 nM | viability, T/C [1]: 106% | viability, T/C [2]: 114% | viability, T/C [3]: 140% | viability, T/C [4]: 148% | viability, T/C (second compound 0.0316 µM, first compound 3.16 µM): 137% | viability, T/C (second compound 0.0316 µM, first compound 10 µM): 65.9% | viability, T/C [5]: 109% | viability, T/C [6]: 114% | viability, T/C [7]: 130% | viability, T/C [8]: 157% | viability, T/C (second compound 0.1 µM, first compound 3.16 µM): 143% | viability, T/C (second compound 0.1 µM, first compound 10 µM): 67.8% | viability, T/C [9]: 104% | viability, T/C [10]: 121% | viability, T/C [11]: 131% | viability, T/C [12]: 163% | viability, T/C (second compound 0.316 µM, first compound 3.16 µM): 137% | viability, T/C (second compound 0.316 µM, first compound 10 µM): 76.6% | viability, T/C [13]: 108% | viability, T/C [14]: 107% | viability, T/C [15]: 123% | viability, T/C [16]: 145% | viability, T/C (second compound 1 µM, first compound 3.16 µM): 139% | viability, T/C (second compound 1 µM, first compound 10 µM): 68.1% | viability, T/C [17]: 110% | viability, T/C [18]: 103% | viability, T/C [19]: 122% | viability, T/C [20]: 154% | viability, T/C (second compound 3.16 µM, first compound 3.16 µM): 151% | viability, T/C (second compound 3.16 µM, first compound 10 µM): 82.4% | viability, T/C [21]: 111% | viability, T/C [22]: 114% | viability, T/C [23]: 128% | viability, T/C [24]: 139% | viability, T/C (second compound 10 µM, first compound 3.16 µM): 152% | viability, T/C (second compound 10 µM, first compound 10 µM): 76.3%
